From patent US20230255954A1, “INTERLEUKIN 33 (IL-33) INHIBITION FOR TREATMENT OF CANCER, FIBROSIS AND INFLAMMATION” (The General Hospital Corporation, priority 2020, published 2023)

Experiments:
Type in all cases: cell-based, mouse
[1] = tested on: IRF3 nuclear localization; experiment: IRF3 nuclear immunofluorescence staining in poly (I:C) treated Pam212 cells; conditions: compared to only Poly (I:C) treated group
Method: For immunofluorescence staining, Pam212 cells were permeated with 1×PBS supplemented with 0.2% Triton X-100 for 5 min. Slides were washed three times for three minutes each in 1×PBS with 0.1% TWEEN20. Slides were blocked with 1% bovine serum albumin and 5% goat serum for 1 hour. The slides were stained overnight at 4° C. with IRF3 antibody. The following day, slides were washed as above and incubated for two hours at room temperature with secondary antibodies conjugated to fluorochromes. Next, slides were incubated with 1:2000 DAPI (Thermo Fisher Scientific, catalog no. D3571) for five minutes at room temperature, then washed as above. Slides were mounted with Prolong Gold Antifade Reagent (Thermo Fisher Scientific, catalog no. P36930).
Next, to investigate the mechanism by which pitavastatin can block IL-33 expression, we first confirmed p-IRF3 expression level because IRF3 is a transcription factor of IL-33 expression. […] However, pitavastatin treatment with Poly (I:C) to Pam212 cells, level of p-IRF3 was decreased (FIG. 11A). […] After IRF3 are phosphorylated by upstream, p-IRF3 can translocate to nucleus as a transcription factor.

[2] = tested on: IL-33 protein in PyMT cells; experiment: IL-33 protein levels in PyMT cells (western blot); conditions: dose range
Method: Pam212 cells were grown at 37° C. in DMEM (Thermo Fisher Scientific, Waltham, Mass., catalog no. 11995065) supplemented with 10% fetal bovine serum (Thermo Fisher Scientific, catalog no. 26140079), 1× penicillin-streptomycin-glutamine (Thermo Fisher Scientific, catalog no. 10378016), 1×MEM non-essential amino acids solution (Thermo Fisher Scientific, catalog no. 11140050), 1×HEPES (Thermo Fisher Scientific, catalog no. 15630080) and 0.1% 2-Mercaptoethanol (Thermo Fisher Scientific, catalog no. 21985023). PyMT cell lines (derived from a primary breast tumor of MMTV-PyMrg mouse on a C57BL/6 background) were grown at 37° C. in RPMI Medium 1640 (Thermo Fisher Scientific, catalog no. 11875093) supplemented with 10% fetal bovine serum, 1× penicillin-streptomycin-glutamine and 0.1% 2-Mercaptoethanol. IL-33 promoter-luci vector (GeneCopoeia, Rockville, Md., catalog no. MPRM3494-PG02) or Control-luci vector (deletion form of IL-33 promoter region from IL-33 promoter-luci vector) or Poly (I:C) (Invivogen, San Diego, Calif., catalog no. tlrl-pic) in Pam212 cells were performed using Lipofectamine 2000 (Thermo Fisher Scientific, catalog no. 11668019) according to the manufacturer's instructions.
Cell lysates were prepared in LIPA buffer (Thermo Fisher Scientific, catalog no. 89900) consisting of 1× protease inhibitor cocktail, EDTA-free (Thermo Fisher Scientific, catalog no. A32955). […]

[3] = tested on: IRF3 nuclear translocation; experiment: Nuclear fractionation assay, IRF3 in poly (I:C) treated Pam212 cells
Method: Pam212 cell line was transfected with poly (I:C) using Lipofectamine 2000 according to the manufacturer's instructions. After 8 hours, cells were lysed using Nuclear Extraction Kit (Novus biologicals, Littleton, Colo., catalog no. NBP2-29447). Briefly, cells were washed with 1×PBS supplemented with PMSF (Novus biologicals, catalog no. KC-407). Cells were centrifuged for 5 min at 1,000 rpm. Cell pellets were resuspended in 1× cold hypotonic buffer (Novus biologicals, catalog no. KC-401) and incubated on ice for 15 min. After adding 10 μL of the 10% detergent solution (Novus biologicals, catalog no. KC-403), cell lysates were centrifuged 10 min at 14,000 rpm. The supernatants were kept as cytoplasmic fraction and the cell pellets were resuspended in 100 μL nuclear lysis buffer (Novus biologicals, catalog no. KC-402). Lysates from the pellets were sonicated for few seconds and incubated for 10 min at 4° C. Then, lysates were centrifuged at 14,000 rpm for 10 min. The supernatants were kept as nuclear fraction.
Next, to investigate the mechanism by which pitavastatin can block IL-33 expression, we first confirmed p-IRF3 expression level because IRF3 is a transcription factor of IL-33 expression. […] However, pitavastatin treatment with Poly (I:C) to Pam212 cells, level of p-IRF3 was decreased (FIG. 11A). […]

SMILES: O=C(O)C[C@H](O)C[C@H](O)/C=C/c1c(C2CC2)nc2ccccc2c1-c1ccc(F)cc1 [pitavastatin]
- IRF3 nuclear localization [1]: blocked
- endogenous IL-33 protein level [2]: decreased
- IRF3 localization by nuclear fractionation [3]: remains IRF3 in cytoplasm
